Consider 23 molecules from patent US11000511B2, “Chemical compounds as antibiotics” (priority 2017, dated 2021).

Some results are limits rather than exact numbers.

For test [1], the target named is T1, purified LasB protein from P. aeruginosa (Pseudomonas aeruginosa, UniProt P14756).
T1 construct: purchased Merck or Charles River Laboratories
In words: Fluorometric assay to determine Ki (Assay 1). The note with it: Ki (μM) Assay 1, purified LasB, substrate Abz-Ala-Gly-Leu-Ala-p-Nitro-Benzyl-Amide 250 μM, Ki calculated from IC50; inhibitor 0.006 to 200 μM. The format is biochemical. On the procedure:
(§1) Experiments were therefore conducted (1) to measure the potency of inhibition of compounds of the invention against purified Pseudomonas aeruginosa LasB enzyme and also experiments were conducted (2) to measure the ability of compounds of the invention to inhibit LasB-catalysed elastin degradation. The first assay uses a commercial fluorescent synthetic peptide and purified LasB enzyme. The LasB hydrolysis kinetics are measured allowing the determination of the IC50 and Ki of the inhibitors; the second is a more physiological assay using dialysed Pseudomonas aeruginosa supernatant as source of enzyme, plus its natural substrate Elastin. It is an “end point assay” that determines the percentage of LasB inhibition by each compound for one particular time point and inhibitor concentration. Technical details are described below:
This assay uses commercially available substrate (Abz-Ala-Gly-Leu-Ala-p-Nitro-Benzyl-Amide (Ex: 340 nm, Em: 415 nm) from Peptide International) and purified LasB protein from P. aeruginosa (provided by Merck or Charles River Laboratories). It is performed to determine LasB elastase activity and assess compound inhibition in 96-well plate format. Some compounds of Formula (I) were assessed using the method of Assay 1 (described below). Other compounds of Formula (I) were assessed using the alternative but equivalent method of Assay 2 (described below).
Method: 10 to 140 ng/ml purified LasB is incubated with 250 μM Abz-Ala-Gly-Leu-Ala-p-Nitro-Benzyl-Amide in 50 mM Tris-HCl pH 7.4, 2.5 mM CaCl2), 0.01% of Triton X100 at 37° C. LasB activity (corresponding to fluorescence emission induced by substrate hydrolysis) is measured over 30 min at 37° C. with a fluorescence plate reader such as the Perkin Elmer Envision or similar. Different range of inhibitor concentrations are routinely assessed depending of inhibitor potency from 0.006 to 200 μM (Assay 1; 2-fold dilutions series) or from 0.0016 to 200 μM (Assay 2; 2-fold dilutions series) in order to determine IC50.
The equation used to calculate the Ki from IC50 is: Ki=IC50/(1+([S]/Km)) where [S]=250 μM and Km=214 μM.

Test [2] addresses T2, LasB elastase activity in dialysed supernatant from P. aeruginosa strain PA01 (Pseudomonas aeruginosa, UniProt P14756).
T2 construct: uses as source of enzyme dialysed supernatant from P. aeruginosa; endogenous in cells; host or cells: P. aeruginosa strain PA01 culture supernatant, filtered and dialysed
In words: Elastin Congo Red assay to determine % inhibition (Assay 1). The format is biochemical. The note with it: read-out: Elastin hydrolysis % inhibition @ 50/25 μM inhibitor concentration Assay 1. On the procedure: as §1
The Elastin assay uses as source of enzyme dialysed supernatant from P. aeruginosa and the elastin congo red as substrate. The natural LasB substrate, elastin, is complexed with the congo red dye (Elastin Congo Red, ECR). The elastolysis activity from the culture supernatant will degrade elastin and release the congo red dye into the supernatant. This red dye release can be measured with a spectrophotometer. Some compounds of Formula (I) were assessed using the method of Assay 1 (described below). Other compounds of Formula (I) were assessed using the alternative but equivalent method of Assay 2 (described below).
Method (Assay 1): To determine LasB elastase activity and assess compound inhibition, an overnight culture of P. aeruginosa strain PA01 is diluted thousand-fold in LB medium. This diluted solution is incubated during 19 hours in a shaking incubator. Culture supernatants are recovered by centrifugation and filtrated through a […] filter. These supernatants are dialysed (filtration molecules <20 kDa) into a 50 mM Tris pH 7.4, 2.5 mM CaCl2 solution at 4° C. under agitation for 24 hours. Supernatant dialysed is then mixed volume/volume with the ECR suspension (20 mg/mL of ECR in 100 mM Tris buffer supplemented with 1 mM CaCl2) supplemented with TritonX 100 (final concentration of 0.01%) in presence of different concentrations of compound (routinely 50 and 25 μM). The mixed reaction is then incubated for 24 hours in a 37° shaking incubator. As a negative control, the mixed supernatant is replaced by Tris solution (50 mM Tris pH 7.4, 2.5 mM CaCl2). The reaction supernatant is recovered by centrifugation and the release of congo red is measured by its absorbance at OD520. Percentage inhibition is determined using the following equation: (OD520 value of DMSO SN−OD520 value of LB)−(OD520 value of Compound SN−OD520 value of LB)/(OD520 value of DMSO SN−OD520 value of LB)×100.

T2 sequence (P14756 198-498): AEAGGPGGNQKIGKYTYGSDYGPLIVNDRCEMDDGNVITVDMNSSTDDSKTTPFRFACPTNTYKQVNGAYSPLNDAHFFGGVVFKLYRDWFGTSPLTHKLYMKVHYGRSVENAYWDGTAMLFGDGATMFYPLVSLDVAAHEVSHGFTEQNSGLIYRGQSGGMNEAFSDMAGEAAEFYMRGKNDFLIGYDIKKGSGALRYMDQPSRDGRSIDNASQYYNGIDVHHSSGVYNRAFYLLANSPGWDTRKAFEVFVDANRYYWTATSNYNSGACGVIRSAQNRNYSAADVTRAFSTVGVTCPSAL
T1 sequence (P14756 198-498): as above

On to `C[N+]1(C)CCN(c2ccc3nc(CNC(=O)C4(CC(=O)O)Cc5ccccc5C4)sc3c2)CC1` [Example 43, 2-[2-[[6-(4,4-dimethylpiperazin-4-ium-1-yl)-1,3-benzothiazol-2-yl]methylcarbamoyl]indan-2-yl]acetic acid], for which the inhibition constant (Ki) in test [1] is 0.3 to 2 µM. Further, the inhibition at 50 µM in test [2] lay within 30 to 60%.

As for `CN(C)CCOc1ccc2sc(CNC(=O)C3(CC(=O)O)Cc4ccccc4C3)nc2c1` [Example 112, 2-[2-[[5-[2-(dimethylamino)ethoxy]-1,3-benzothiazol-2-yl]methylcarbamoyl]indan-2-yl]acetic acid], in test [1], the inhibitory constant (Ki) was less than 0.3 µM. Moreover, in test [2], the inhibition at 50 µM is greater than 60%.

With `O=C(O)CC1(C(=O)NCc2nc3cc(O)ccc3s2)Cc2ccccc2C1` [Example 130, 2-[2-[(5-hydroxy-1,3-benzothiazol-2-yl)methylcarbamoyl]indan-2-yl]acetic acid], the Ki in test [1] was less than 0.3 µM. Moreover, the inhibition at 50 µM in test [2] is greater than 60%.

As to `CN1CCC(OC(=O)[C@H](Cc2c[nH]c3ccccc23)NC(=O)C2(CC(=O)O)Cc3ccccc3C2)CC1` [Example 45, 2-(2-{[(2S)-3-(1H-indol-3-yl)-1-[(1-methylpiperidin-4-yl)oxy]-1-oxopropan-2-yl]carbamoyl}-2,3-dihydro-1H-inden-2-yl)acetic acid], the inhibition constant Ki in test [1] was less than 0.3 µM. For the same molecule, the inhibition at 50 µM in test [2] is greater than 60%.

For the molecule `Cc1ccc2oc(CNC(=O)C3(CC(=O)O)Cc4ccccc4C3)cc2c1` [Example 6, 2-(2-{[(5-methyl-1-benzofuran-2-yl)methyl]carbamoyl}-2,3-dihydro-1H-inden-2-yl)acetic acid], the Ki in test [1] is less than 0.3 µM. In test [2], the inhibition at 50 µM is greater than 60%.

In the case of `Cn1c(CNC(=O)C2(CC(=O)O)Cc3ccccc3C2)cc2ccccc21` [Example 9, 2-[2-[(1-methylindol-2-yl)methylcarbamoyl]indan-2-yl]acetic acid], the Ki in test [1] was less than 0.3 µM. The inhibition at 50 µM in test [2] is greater than 60%.

As for `NC/C=C/c1ccc2sc(CNC(=O)C3(CC(=O)O)Cc4ccccc4C3)nc2c1` [Example 87, 2-[2-[[5-[(E)-3-aminoprop-1-enyl]-1,3-benzothiazol-2-yl]methylcarbamoyl]indan-2-yl]acetic acid], the Ki in test [1] is 0.3 to 2 µM. For the same molecule, in test [2], the inhibition at 50 µM is greater than 60%.

Consider `O=C(O)CC1(C(=O)NCC2COc3ccccc3O2)Cc2ccccc2C1` (stereo not shown) [Example 17, 2-[2-(2,3-dihydro-1,4-benzodioxin-3-ylmethylcarbamoyl)indan-2-yl]acetic acid], for which, in test [1], the inhibition constant (Ki) was 0.3 to 2 µM. The inhibition at 50 µM in test [2] was 30 to 60%.

Turning to `CN(C)CCNc1ccc2sc(CNC(=O)C3(CC(=O)O)Cc4ccccc4C3)nc2c1` [Example 76, 2-[2-[[5-[2-(dimethylamino)ethylamino]-1,3-benzothiazol-2-yl]methylcarbamoyl]indan-2-yl]acetic acid], the Ki in test [1] was 0.3 to 2 µM. In test [2], the inhibition at 50 µM was greater than 60%.

As to `C[N+](C)(C)C[C@H]1C[C@H](c2ccc3nc(CNC(=O)C4(CC(=O)[O-])Cc5ccccc5C4)sc3c2)C1` [Example 92, 2-[2-[[6-[(1r,3r)-3-[(trimethylammonio)methyl]cyclobutyl]-1,3-benzothiazol-2-yl]methylcarbamoyl]indan-2-yl]acetate], the Ki in test [1] is 0.3 to 2 µM. Besides, the inhibition at 50 µM in test [2] was greater than 60%.

On to `O=C(O)CC1(C(=O)NCCc2cc3ccccc3[nH]2)Cc2ccccc2C1` [Example 27, 2-[2-[2-(1H-indol-2-yl)ethylcarbamoyl]indan-2-yl]acetic acid], for which, in test [1], the Ki is 2 to 10 µM. In addition, the inhibition at 50 µM in test [2] was 15 to 30%.

Consider `Cn1cnc(CNC(=O)C2(CC(=O)O)Cc3ccccc3C2)c1` [Example 21, 2-[2-[(1-methylimidazol-4-yl)methylcarbamoyl]indan-2-yl]acetic acid], for which the Ki in test [1] was 2 to 10 µM. Also, in test [2], the inhibition at 50 µM was in the range of 30 to 60%.

Turning to `NCCCc1ccc2nc(CNC(=O)C3(CC(=O)O)Cc4ccccc4C3)sc2c1` [Example 38, 2-[2-[[6-(3-aminopropyl)-1,3-benzothiazol-2-yl]methylcarbamoyl]indan-2-yl]acetic acid], the inhibition constant Ki in test [1] is 0.3 to 2 µM. Moreover, the inhibition at 50 µM in test [2] is greater than 60%.

On to `O=C(O)CC1(C(=O)NCCc2ccc(O)cc2)Cc2ccccc2C1` [Example 13, 2-[2-[2-(4-hydroxyphenyl)ethylcarbamoyl]indan-2-yl]acetic acid], for which the Ki in test [1] was 2 to 10 µM. In test [2], the inhibition at 50 µM was 30 to 60%.

With `O=C(O)CC1(C(=O)NCc2nc3cc(Cl)ccc3s2)Cc2ccccc2C1` [Example 25, 2-[2-[(5-chloro-1,3-benzothiazol-2-yl)methylcarbamoyl]indan-2-yl]acetic acid], the Ki in test [1] is less than 0.3 µM. The inhibition at 50 µM in test [2] was greater than 60%.

In the case of `O=C(O)CC1(C(=O)NCc2cc3ccccc3s2)Cc2ccccc2C1` [Example 23, 2-[2-(benzothiophen-2-ylmethylcarbamoyl)indan-2-yl]acetic acid], the Ki in test [1] is less than 0.3 µM. The inhibition at 50 µM in test [2] is 30 to 60%.

`O=C(O)CC1(C(=O)NCc2ccc3ccccc3n2)Cc2ccccc2C1` [Example 55, 2-(2-((quinolin-2-ylmethyl)carbamoyl)-2,3-dihydro-1H-inden-2-yl)acetic acid]: in test [1], the Ki is 0.3 to 2 µM. In test [2], the inhibition at 50 µM is greater than 60%.

As to `O=C(O)CC1(C(=O)NCc2nc3ccc(N4CCNCC4)cc3s2)Cc2ccccc2C1` [Example 41, 2-[2-[(6-piperazin-1-yl-1,3-benzothiazol-2-yl)methylcarbamoyl]indan-2-yl]acetic acid], the Ki in test [1] was 0.3 to 2 µM. Further, in test [2], the inhibition at 50 µM lay in the range of 30 to 60%.

Take `O=C(O)CC1(C(=O)NCc2cc3ccccc3cn2)Cc2ccccc2C1` [Example 2, 2-[2-(3-isoquinolylmethylcarbamoyl)indan-2-yl]acetic acid]: the Ki in test [1] is 0.3 to 2 µM. Further, in test [2], the inhibition at 50 µM lay within 30 to 60%.

As to `C[N+](C)(C)C[C@H]1C[C@@H](c2ccc3nc(CNC(=O)C4(CC(=O)[O-])Cc5ccccc5C4)sc3c2)C1` [Example 94, 2-[2-[[6-[(1s,3s)-3-[(trimethylammonio)methyl]cyclobutyl]-1,3-benzothiazol-2-yl]methylcarbamoyl]indan-2-yl]acetate], the Ki in test [1] was less than 0.3 µM. Further, the inhibition at 50 µM in test [2] was greater than 60%.

As to `CN(C)C1CN(c2ccc3nc(CNC(=O)C4(CC(=O)O)Cc5ccccc5C4)sc3c2)C1` [Example 67, 2-(2-(((6-(3-(dimethylamino)azetidin-1-yl)benzo[d]thiazol-2-yl)methyl)carbamoyl)-2,3-dihydro-1H-inden-2-yl)acetic acid], the Ki in test [1] is 0.3 to 2 µM. Moreover, the inhibition at 50 µM in test [2] was greater than 60%.

In the case of `CN1CC2(C1)CN(c1ccc3nc(CNC(=O)C4(CC(=O)O)Cc5ccccc5C4)sc3c1)C2` [Example 71, 2-[2-[[6-(6-methyl-2,6-diazaspiro[3.3]heptan-2-yl)-1,3-benzothiazol-2-yl]methylcarbamoyl]indan-2-yl]acetic acid], in test [1], the inhibition constant Ki is less than 0.3 µM. The inhibition at 50 µM in test [2] is greater than 60%.

Regarding `O=C(O)CC1(C(=O)NCc2ccccc2)Cc2ccccc2C1` [Example 16, 2-[2-(benzylcarbamoyl)indan-2-yl]acetic acid], the Ki in test [1] is 2 to 10 µM. The inhibition at 50 µM in test [2] was in the range of 30 to 60%.
